In EP1075186B1, “METHOD OF HSV PROPHYLAXIS” (The Children's Hospital Research Foundation, priority 1998, dated 1999):

Key:
[1] = test system: human foreskin fibroblast (HFF) cell monolayers; test: Toxicity effects controls (sham-inoculated compound treated HFF monolayers); format: cell-based
Source text: Sham-incolulated, non-treated HFF cell monolayers were included along with the drug-treated monolayers as "cell monolayer controls". • 1. HSV-1 inoculated, non-compound treated HFF monolayers were included as "positive controls"; and • 2.
In the tables, the symbols have the meaning indicated: + = toxic; - = no toxicity; +/- = mild toxicity; ND = not done; T = toxicity effects interfered with CPE rating; CPE = cytopathic effect.

[2] = test system: VZV; test: In vitro assay with VZV on HFF cell monolayers; format: cell-based; conditions: Example 2, Table 17, 0.1 mg/ml, footnote: this toxicity observation is questionable
Description: VZV was grown to a CPE level […] of 3-4 + on HFF cell monolayers. The VZV was scraped from the flask, centrifuged and the cell pellet was resuspended in 10 ml of complete medium. 100 to 200 µl of the VZV cell associated inoculum was inoculated onto confluent HFF cell monolayers by absorption for 60 minutes at 37°C. After absorption of the virus, the inoculum was aspirated from the cell monolayers.
The VZV-infected monolayers were rehydrated with medium containing the appropriate concentrations of compounds to be tested. All monolayers were incubated at 37°C. Development of VZV cytopathology was monitored daily for 7 days by inverted light microscopy. Titers were calculated by multiple regression analysis.

[3] = Experiment 5, Table 12, 48 Hours Post Incubation, 0.001 mg/ml
[4] = Experiment 5, Table 12, 48 Hours Post Incubation, 0.01 mg/ml
[5] = Experiment 5, Table 12, 48 Hours Post Incubation, 1 mg/ml

CC1=CC(C)=[N+]2CC[N+]3=C(C)C=C(C)[O][Co-3]23([NH2])([NH3+])[O]1 [Compound 23, reference compound]
TOXICITY EFFECTS CONTROLS ([1]; Experiment 2, Table 4, 0.001 mg/ml, 24 h PI): -
TOXICITY EFFECTS CONTROLS ([1]; Experiment 2, Table 4, 0.001 mg/ml, 48 h PI): -
TOXICITY EFFECTS CONTROLS ([1]; Experiment 2, Table 4, 0.01 mg/ml, 24 h PI): -
TOXICITY EFFECTS CONTROLS ([1]; Experiment 2, Table 4, 0.01 mg/ml, 48 h PI): -
TOXICITY EFFECTS CONTROLS ([1]; Experiment 2, Table 4, 0.1 mg/ml, 24 h PI): -
TOXICITY EFFECTS CONTROLS ([1]; Experiment 2, Table 4, 0.1 mg/ml, 48 h PI): -
TOXICITY EFFECTS CONTROLS ([1]; Experiment 2, Table 4, 1 mg/ml, 24 h PI): +/-
TOXICITY EFFECTS CONTROLS ([1]; Experiment 2, Table 4, 1 mg/ml, 48 h PI): +/-
TOXICITY EFFECTS CONTROLS [1, 3]: -
TOXICITY EFFECTS CONTROLS [1, 4]: -
TOXICITY EFFECTS CONTROLS ([1]; Experiment 5, Table 12, 48 Hours Post Incubation, 0.1 mg/ml): -
TOXICITY EFFECTS CONTROLS ([1]; Experiment 5, Table 12, 48 Hours Post Incubation, 0.5 mg/ml): -
TOXICITY EFFECTS CONTROLS [1, 5]: -
TOXICITY EFFECTS CONTROLS ([1]; Experiment 5, Table 12, 48 Hours Post Incubation, 2 mg/ml): +/-
TOXICITY EFFECTS CONTROLS ([1]; Experiment 5, Table 12, 48 Hours Post Incubation, 5 mg/ml): +/-
VIRUCIDAL EFFICACY 7 Days Post Inoculation Efficacy [2]: T?

CC1=C(Cl)C(C)=[N+]2CC[N+]3=C(C)C(Cl)=C(C)[O][Co-3]23([n+]2cc[nH]c2)([n+]2cc[nH]c2)[O]1 [Compound 93]
TOXICITY EFFECTS CONTROLS ([1]; Experiment 3, Table 7, 0.001 mg/ml, 24 hrs post incubation): -
TOXICITY EFFECTS CONTROLS ([1]; Experiment 3, Table 7, 0.001 mg/ml, 48 hrs post incubation): -
TOXICITY EFFECTS CONTROLS ([1]; Experiment 3, Table 7, 0.01 mg/ml, 24 hrs post incubation): -
TOXICITY EFFECTS CONTROLS ([1]; Experiment 3, Table 7, 0.01 mg/ml, 48 hrs post incubation): -
TOXICITY EFFECTS CONTROLS ([1]; Experiment 3, Table 7, 0.1 mg/ml, 24 hrs post incubation): -
TOXICITY EFFECTS CONTROLS ([1]; Experiment 3, Table 7, 0.1 mg/ml, 48 hrs post incubation): +/-
TOXICITY EFFECTS CONTROLS ([1]; Experiment 3, Table 7, 0.5 mg/ml, 24 hrs post incubation): -
TOXICITY EFFECTS CONTROLS ([1]; Experiment 3, Table 7, 0.5 mg/ml, 48 hrs post incubation): -
TOXICITY EFFECTS CONTROLS ([1]; Experiment 3, Table 7, 1 mg/ml, 24 hrs post incubation): -
TOXICITY EFFECTS CONTROLS ([1]; Experiment 3, Table 7, 1 mg/ml, 48 hrs post incubation): -
TOXICITY EFFECTS CONTROLS ([1]; Experiment 3, Table 7, 5 mg/ml, 24 hrs post incubation): +/-
TOXICITY EFFECTS CONTROLS ([1]; Experiment 3, Table 7, 5 mg/ml, 48 hrs post incubation): +/-
TOXICITY EFFECTS CONTROLS [1, 3]: -
TOXICITY EFFECTS CONTROLS [1, 4]: -
TOXICITY EFFECTS CONTROLS [1, 5]: +/-
toxicity ([1]; Experiment 5, cell rounding, detaching from the monolayer, increased granularity, loss of normal morphology): more pronounced in the 0.5 and the 0.1 mg/ml concentrations
VIRUCIDAL EFFICACY 7 Days Post Inoculation Efficacy [2]: T?
